Among the data in a melting point compilation (Tetko et al.; mined from patent text by program, amines drawn as free bases though some values may be those of a salt) are melting point values, retold here.

A word on the melting point: it is the temperature, or range, at which the solid turns liquid.

In turn, `CC(C)n1nc(-c2c(-c3ccccc3)nn3ccc(OCCN4CC4)cc23)ccc1=O` registered a melting point of 159 to 160 °C. `COC(=O)[C@H](Cc1ccc(OS(=O)(=O)C(F)(F)F)cc1)NC(=O)OC(C)(C)C` had a melting point of 47 to 48 °C.

The compound `Cc1c(F)c(Oc2ccc(F)c(F)c2)nc(Oc2cc(C(F)(F)F)nn2C)c1F` returned a melting point of 93 °C. Regarding `COc1cccc(-c2cn(-c3ccc(C(=O)O)cc3)nn2)c1`, the melting point was in the range of 276 to 277 °C. With `N#Cc1cccc(NC(=O)n2ccnc2)c1`, the melting point lay in the range of 174 to 176 °C. Compound `CCOC(=O)C1=C(C(OCC)OCC)NC(C)=C(C(=O)OCCO)C1c1cccc([N+](=O)[O-])c1` (stereo not drawn) yielded a melting point of 98 to 100 °C. In turn, `BrCc1cccc2cccc(CBr)c12` gave a melting point of 131 to 132 °C.

`COc1ccc(C2Nc3ccc(Cl)cc3C(C#CC3CC3)(C(F)(F)F)O2)cc1` (stereo not drawn) returned a melting point of 130 to 132 °C. Compound `CCOC(=O)NNc1ccc(N(C)CC(C)O)nn1` (stereo not drawn) gave a melting point of 150 to 152 °C. For `COc1nc(C)nc(NC(=N)SC)n1` the value was 112 °C; for `CN1CCC(=C2c3cc(C#N)ccc3C=Cn3cccc32)CC1`, 156 to 159 °C; for `CC1CCN(c2cc3nc(C(C)(C)C)sc3cc2N=C=S)CC1`, 54 to 58 °C. For `COc1cc2c(cc1OC)-c1cc(Nc3c(C)cccc3C)nc(=O)n1CC2` the value was 297 to 299 °C; for `CCOC(=O)c1nnc2n1-c1ccccc1C(c1ccccc1F)=NC2`, 195 to 197 °C; for `COc1ccc(-c2cnc(N)c(Sc3ccc(Cl)cc3)n2)cc1`, 154 to 155 °C.

The compound `CCON=C(CC)C1=C(O)CC(c2ccc3c(c2)N(CC#N)C(=O)CO3)CC1=O` (stereo not drawn) came in with a melting point of 156 to 159 °C.

Compound `CCCCCCC(C)(C)c1ccc([C@@H]2CC(=O)C[C@@H](C#N)C2)c(OCc2ccccc2)c1` (relative stereo) had a melting point of 79 °C. For `O=C(CCl)Nc1ccc2cn[nH]c2c1` the value was 155 to 160 °C. With `CNC(=O)c1c(NC)ncn1Cc1ccccc1` the figure was 113 to 114 °C; with `Cc1cc(C)c2nc(Nc3ccc(CN)cc3)n(Cc3nc(C)ccc3O)c2c1`, 255 °C; with `CC(C)(Cn1c(CCO)nc2c(N)nc3ccccc3c21)NS(C)(=O)=O`, 209 to 212 °C. For `COc1c(OCc2ccccc2)ccc2cc[nH]c12` the value was 66 to 67 °C; for `COc1c(Cl)cc(C(=O)O)c2cccc(S(=O)(=O)N(C)C)c12`, 127 to 137 °C; for `O=C1N[C@H](Cc2ccc(C(F)(F)F)cc2)[C@H](c2ccc(F)cc2F)O1` (racemic), 147 to 148 °C. Compound `NC(=O)NCc1ccc(CNC(=O)[C@@H](CCCNC(N)=N[N+](=O)[O-])NC(=O)Cc2ccc(O)cc2)cc1` yielded a melting point of 168 to 170 °C. With `O=C(O)CC1C(CCl)=CCC1O` (stereo not drawn) the figure was 33 to 34 °C; with `Cc1nc(-c2ccc(S(C)(=O)=O)cc2)c(-c2ccc(F)cc2)s1`, 134 to 135 °C. For `NCCc1c[nH]c2ccc3c(=O)n(CCc4ccccc4)ccc3c12` the value was 162 to 166 °C. For `NC(=O)C=Cc1ccc(N)cc1` the value was 200 °C. On to `COC(=O)C(=O)c1ccc(OCCOc2ccccc2)cc1`, for which the melting point lay within 79 to 81 °C. Regarding `O=C(CC1=CC(O)CC1=O)Oc1ccc2ccccc2c1` (stereo not drawn), the melting point amounted to 81 °C.

`COc1cccc(CSc2ncccc2C(=O)O)c1` had a melting point of 156 to 157 °C. For `CCCCc1nc2c(N)nc3cccnc3c2n1CCNC(=O)c1cccc(O)n1` the value was 258 to 260 °C; for `Cc1c(NC(=O)c2ccc(OC[C@@H]3CCCO3)cc2F)ccc2c1cc(CNCC(C)(C)O)n2C`, 118 °C. The compound `O=C(NCC1CCc2n[nH]cc2C1)[C@@H]1CCCN1C(=O)[C@@H](CC1CCCCC1)NS(=O)(=O)Cc1ccccc1` (stereo partly drawn) yielded a melting point of 100 to 103 °C. Take `NCC1Cc2cccc(-c3cccc(Cl)c3)c2O1` (stereo not drawn): the melting point was 150 to 154 °C.

Turning to `NC(=O)c1c(NC(=O)C2CC2)sc2c1CCC(F)(F)C2`, the melting point lay in the range of 207 to 208 °C. For `COc1cc(COc2cccc3c2CN(C2CCC(=O)NC2=O)C3=O)ccc1OCCN(C)C` (stereo not drawn) the value was 190 to 192 °C; for `CN1CCC(c2c[nH]c3ccc(NC(=O)c4ccc(Cl)cc4Cl)nc23)CC1`, 151 to 152 °C.

`O=C(O)Cc1c(-c2ccccc2)c2cc(Cl)c(Cl)cc2oc1=O`: the melting point was 222 to 223 °C. For `Cc1cccc(C)c1CNc1cc(C2=NCCN2C)cc2c1nc(C)n2C` the value was 118 to 119 °C; for `CNC(=O)c1c(I)c(C#N)c(I)c(C(=O)OCC(O)CO)c1I` (stereo not drawn), 117 to 120 °C. For `COc1cc(OC(C)C)cc2oc(C)cc(=S)c12` the value was 113 to 114 °C. In the case of `C/C(=C/C(=O)N(C)O)c1ccn(-c2c(C)cccc2C)c1`, the melting point was in the range of 158 to 160 °C. With `CN1C(=O)[C@@](NC(=O)Nc2cccc(Nc3nnn[nH]3)c2)(C2CCCCC2)N=Cc2ccccc21`, the melting point lay within 190 to 193 °C. With `CC(C)N=CCCC1(C(N)=O)c2ccccc2-c2ccccc21` the figure was 149 to 155 °C; with `O=C(O)CC(CSc1nc2ccccc2[nH]1)C(=O)O` (stereo not drawn), 165 to 168 °C. Regarding `CCOC(=O)C1=C(C)NC(=O)N(C(=O)OC(C)C)C1c1cccc([N+](=O)[O-])c1` (stereo not drawn), the melting point lay in the range of 128 to 129 °C. In turn, `CCc1nc2c(N)cccc2o1` registered a melting point of 46 °C. With `Cc1cc(-c2nc3ccc(N4CCOCC4)cc3c(=O)[nH]2)cc(C)c1OCCO` the figure was 280 to 281 °C; with `CC1(C)CC1(N)C(=O)OCC(CO)OCn1cnc2c(=O)[nH]c(N)nc21` (stereo not drawn), > 300 °C.

As to `C[Si](C)(C)c1cc(C(F)(F)F)ccc1OC1CCCCO1` (stereo not drawn), the melting point was in the range of 43 to 46 °C. With `CNC(=O)C(Cc1ccc(OCCc2nc(-c3ccccc3)oc2C)cc1)C(=O)OC` (stereo not drawn) the figure was 151 to 152 °C; with `CCCCCC(=O)OCC(CCn1cnc2c(=O)[nH]c(N)nc21)COC(=O)CCCCC`, 198 °C. For `Cc1noc(NS(=O)(=O)c2ccccc2-c2c[nH]c3ccccc23)c1C` the value was 184 to 186 °C; for `CCCCCCCCOc1ccc(-c2ncc(O)cn2)cc1`, 131 to 132 °C. With `CCOC(=O)c1ccc(C(=O)Sc2cccn3c(=O)c(C(=O)OCC)cnc23)cc1` the figure was 146 to 148 °C. Compound `Cc1c(NC(=O)c2ccc(OC[C@@H]3CCCO3)cc2)ccc2cc(CNC3CCC3)cnc12` registered a melting point of 142 to 144 °C.

`CCOC(=O)Cc1c(C)nn(-c2ccccn2)c1-c1ccccc1` returned a melting point of 89 to 90 °C. With `COc1cc2c(cc1OC)C(O)(CN)CCC2` (stereo not drawn) the figure was 107 to 109 °C.

`CCc1nc2c(N)nc3ccccc3c2n1CCCC1(C)OCCO1` showed a melting point of 195 to 196 °C. In the case of `COC(=O)COc1ccc2cc(CNC(=O)c3cnn(-c4ccc(Cl)cc4)c3C(F)(F)F)ccc2c1Br`, the melting point was 206 to 207 °C. In turn, `O=C(Nc1nc(-c2ccccc2)nc2[nH]ccc12)[C@@H]1CCCN1` had a melting point of 236 to 238 °C. For `Cc1ccc(S(=O)(=O)OC2CCN(S(=O)(=O)c3ccc(C)cc3)CC2)cc1` the value was 137 to 140 °C; for `CCN1c2ncc(CSc3ncnc4[nH]ncc34)cc2C(=O)N(C)c2ccc(Cl)nc21`, 128 to 130 °C; for `CC1(Cc2ccccc2)COc2cc(C(=O)O)ccc21` (stereo not drawn), 165 °C.

`COc1ccc(Cc2nc3cnc4cc(-c5ccccc5)ccc4c3n2CCOc2ccccc2)cc1` displayed a melting point of 205 to 206 °C. `O=C(O)c1nc(SCc2ccccc2)ccc1SCc1ccccc1` displayed a melting point of 129 °C. With `N#Cc1ccc(NC(=O)CN2CCC(Cc3ccccc3)CC2)cc1` the figure was 120 to 124 °C; with `CC(C)(C)OC(=O)c1ccc(Cl)c([N+](=O)[O-])c1`, 66 to 67 °C; with `CC(=O)NCCCc1cccc2c1CC(CCCCc1ccccc1)O2` (stereo not drawn), 40 to 41 °C. For `CCOCCc1c(N=[N+]=[N-])nc(NC(=O)NC)nc1-c1ccccc1` the value was 128 to 130 °C.

Compound `N#Cc1ccc(COc2ccc(CC(NC(=O)c3cn4ccc(-c5ccc(Cl)cc5)cc4n3)C(=O)O)cc2)cc1` (stereo not drawn) displayed a melting point of 263 °C.

Regarding `Cc1cnn(CC(=O)O)c1OCCCc1cn(-c2ccc(C(F)(F)F)cn2)nc1C(C)C`, the melting point was in the range of 123 to 124 °C. With `O=C(O)c1cc(F)c(F)cc1Nc1ccc(F)cc1F` the figure was 215 to 216 °C; with `O=C(O)c1ccc(C(F)(F)F)nc1C=CCCl`, 137 to 138 °C. `CNCC1CCN(c2c(F)cc3c(=O)c(C(=O)O)cn(C4CC4)c3c2OC)C1` (stereo not drawn) displayed a melting point of 226 to 230 °C.

`Cc1sc(C(=O)O)cc1NC(=O)NCc1ccccc1` displayed a melting point of 259 to 260 °C.

For the compound `CCCN1C(=O)C(C)(C)N=C(c2ccccc2F)c2cc([N+](=O)[O-])cc(Cl)c21`, the melting point lay within 178 to 179 °C. As for `COC(=O)c1c2c(c3cc4c(cc3c1-c1ccc(OC)c(OC)c1)OCO4)OCOC2=O`, the melting point fell in the range of 168 to 170 °C.

`CSc1ncc2cc(C)c(N)nc2n1`: the melting point lay within 268 to 270 °C. With `CS(=O)(=O)c1cc(-c2nc(=O)c3ccccc3s2)ccn1` the figure was 190 to 192 °C. With `Clc1ccc(C(Cl)Cl)c(C(Cl)Cl)c1` the figure was 63 to 64 °C; with `CC[C@H](O)C(=O)N1CCC(Oc2cc3ncnc(Nc4cccc(Cl)c4F)c3cc2OC)CC1`, 152 to 153 °C; with `CC(=O)c1cccc(C=CC(=O)N2CCc3c([nH]c4ccccc34)C2c2ccc3c(c2)OCO3)c1` (stereo not drawn), 191 °C.

Compound `Cc1ccc2c(c1)c(O)c(C(=O)NC1CCCCC1)c(=O)n2Cc1ccc(F)cc1` displayed a melting point of 156 °C. `CCc1nc(-c2ccc(OCCC3CCN(c4ccc(C)nn4)CC3)cc2)co1` returned a melting point of 124 °C. `O=C1[C@H]2CCC[C@H]2N(C(=O)CNCc2ccccc2)c2ccccc2N1Cc1ccccc1` (relative stereo) returned a melting point of 95 to 98 °C.
